Measured values as given in US7662862B2, “5-HT7 receptor antagonists” (Laboratorios Del Dr. Esteve, S.A., priority 2004, dated 2010).
Counter-ions that a name gives are not always drawn.

Target: Cloned Human Serotonin Receptor, Subtype 7 (h5HT7) (Homo sapiens, UniProt P34969)
Test: Radioligand binding assay, [125I]LSD, cloned human 5-HT7 receptor expressed in CHO cells (Flashplate)
Details: radioligand [125I]LSD 0.82 nM, 240 min at room temperature, triplicate, read-out: 5-HT7 IC-50
Method: Biological Assays Radioligand Binding
Radioligand binding assays were performed using the Cloned Human Serotonin Receptor, Subtype 7 (h5HT7), expressed in CHO cells, coated on Flashplate (Basic FlashPlate Cat.: SMP200) from PerkinElmer (Cat.: 6120512). The protocol assay was essentially the recommended protocol in the Technical Data Sheet by PerkinEmer Life and Analytical Sciences. The Mass membrane protein/well was typically 12 μg and the Receptor/well was about 9-10 fmoles. The Flashplate were let equilibrate at room temperature for one hour before the addition of the components of the assay mixture. The binding buffer was: 50 mM Tris-HCl, pH 7.4, containing 10 mM MgCl2, 0.5 mM EDTA and 0.5% BSA. The radioligand was [^125I]LSD at a final concentration of 0.82 nM. Nonspecific binding was determined with 50 μM of Clozapine. The assay volume was 25 μl. TopSeal-A were applied onto Flashplate microplates and they were incubated at room temperature for 240 minutes in darkness. The radioactivity were quantified by liquid scintillation spectrophotometry (Wallac 1450 Microbeta Trilux) with a count delay of 4 minutes prior to counting and a counting time of 30 seconds per well. Competition binding data were analyzed by using the LIGAND program (Munson and Rodbard, LIGAND: A versatile, computerized approach for characterization of ligand-binding systems. Anal. Biochem. 107: 220-239, 1980) and assays were performed in triplicate determinations for each point.

Chain of Cloned Human Serotonin Receptor, Subtype 7 (h5HT7) (P34969 whole entry): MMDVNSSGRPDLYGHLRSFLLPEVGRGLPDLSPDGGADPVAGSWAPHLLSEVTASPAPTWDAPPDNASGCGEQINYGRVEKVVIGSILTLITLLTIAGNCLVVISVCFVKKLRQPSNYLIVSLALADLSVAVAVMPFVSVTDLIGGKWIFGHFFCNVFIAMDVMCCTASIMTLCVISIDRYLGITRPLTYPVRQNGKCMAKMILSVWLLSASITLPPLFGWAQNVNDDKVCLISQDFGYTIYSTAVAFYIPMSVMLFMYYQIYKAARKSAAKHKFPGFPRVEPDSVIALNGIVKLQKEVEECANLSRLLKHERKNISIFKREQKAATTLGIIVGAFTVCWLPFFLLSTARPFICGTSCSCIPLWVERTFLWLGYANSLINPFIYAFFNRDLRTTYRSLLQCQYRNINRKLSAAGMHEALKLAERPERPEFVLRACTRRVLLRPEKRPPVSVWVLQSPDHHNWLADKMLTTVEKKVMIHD

SMILES	IC50
CCN(CCCN1CCc2cc(OC)c(OC)c3c2C1CC3)S(=O)(=O)c1ccccc1Cl (centres unmarked) [Compound 111, 2-Chloro-N-[3-(7,8-dimethoxy-2,2a,4,5-tetrahydro-1H-3-aza-acenaphthylen-3-yl)-propyl]-N-ethyl-benzenesulfonamide hydrochloride]	8 nM
CCN(CCCN1CCc2cc(OC)c(OC)c3c2C1CC3)S(=O)(=O)c1cc(Cl)ccc1Cl (centres unmarked) [Compound 80, 2,5-Dichloro-N-[3-(7,8-dimethoxy-2,2a,4,5-tetrahydro-1H-3-aza-acenaphthylen-3-yl)-propyl]-N-ethyl-benzene sulfonamide hydrochloride]	6.2 nM

The next lines start with the values.

IC50	SMILES
6.7 nM	CCN(CCCN1CCc2cccc3c2C1CC3)S(=O)(=O)c1ccc(C)cc1 (centres unmarked) [Compound 89, N-Ethyl-4-methyl-N-[3-(2,2a,4,5-tetrahydro-1H-3-aza-acenaphthylen-3-yl)-propyl]-benzenesulfonamide hydrochloride]
20.3 nM	CCN(CCCN1CCc2cccc3c2C1CC3)S(=O)(=O)c1cccc2ccccc12 (centres unmarked) [Compound 87, Naphthalene-1-sulfonic acid ethyl-[3-(2,2a,4,5-tetrahydro-1H-3-aza-acenaphthylen-3-yl)-propyl]-amide hydrochloride]
4.5 nM	CCN(CCCN1CCc2cccc3c2C1CC3)S(=O)(=O)c1cccc(C)c1 (centres unmarked) [Compound 88, N-Ethyl-3-methyl-N-[3-(2,2a,4,5-tetrahydro-1H-3-aza-acenaphthylen-3-yl)-propyl]-benzenesulfonamide hydrochloride]
